These results are taken from patent US20260097004A1, “PHARMACEUTICAL COMPOSITION FOR TREATING MAST CELL-MEDIATED INFLAMMATORY DISEASES” (priority 2022, published 2026).

One data set addresses T1, MrgA1 (Mus musculus, UniProt Q91WW5).
T1 sequence (Q91WW5 1-304): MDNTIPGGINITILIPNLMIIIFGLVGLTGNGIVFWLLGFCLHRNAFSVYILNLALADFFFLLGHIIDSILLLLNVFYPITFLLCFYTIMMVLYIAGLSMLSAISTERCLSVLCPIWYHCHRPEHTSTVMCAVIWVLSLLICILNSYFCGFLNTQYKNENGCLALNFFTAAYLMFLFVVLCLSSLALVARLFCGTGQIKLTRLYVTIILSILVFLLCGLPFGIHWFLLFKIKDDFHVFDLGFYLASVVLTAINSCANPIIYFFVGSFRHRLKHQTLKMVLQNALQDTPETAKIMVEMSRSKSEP
The data set can be described thus: Calcium ion flow when substance P acts on MrgA1. It counts as cell-based. The note with it: substance P 10 μM acted on MrgA1; cells with vs without Atovaquone; FIG. 2. The method, then: (§1) An incubation buffer was composed of: 0.5 μl of Fluo-3, 2 μl of Pluronic F-127 and 997.5 μl of CIB (calcium imaging buffer: 125 mM NaCl, 3 mM KCl, 2.5 mM CaCl2, 0.6 mM MgCl2, 10 mM HEPES, 20 mM glucose, 1.2 mM NaHCO3 and 20 mM sucrose, and pH=7.4). Different concentrations (0, 1, 10, 100 nM and 1 μM) of Atovaquone were prepared in the incubation buffer, and an incubation buffer solution without Atovaquone was used as a negative control. LAD2 cells were washed twice with CIB, and then a desired incubation buffer solution was added. After incubation for 30 min, the cells were washed twice with CIB, and then inoculated into a 96-well plate for calcium imaging. For calcium imaging, the cells were magnified 200× and a photo was obtained per second under blue light. After a substance was injected, the cells were confirmed as being responsive if [Ca^2+] rose by at least 50%.
(§2) FIG. 2 is a dynamic observation graph showing a calcium ion flow change when a substance P acted on different receptors, i.e., a schematic representation of the substance P acting on MrgA1, MrgX2 and NKIR (5 nM acted on NKIR, 50 nM acted on MrgX2 and 10 μM acted on MrgA1). This image set was photographed every 5 s from left to right for 120 s. In each group of graphs, a column represented cells with Atovaquone, the next column represented cells without Atovaquone.

Another data set deals with LAD2 mast cells. The data set can be described thus: β-hexosaminidase assay of mast cell degranulation stimulated by SP. It counts as cell-based. The note with it: SP stimulating experiment, FIG. 1. The method, then: An experimental method using a β-hexosaminidase assay comprises the following steps: • 1. a PNAG/HEPES buffer/0.1% Triton-100/glycine solution was prepared at a normal temperature; • 2. LAD2 cell was taken out from an incubator at 37° C. and cell count was read, and then an appropriate amount of cell suspension was taken according to experimental cell requirements (estimated based on 5000-10000/well); • 3. the LAD2 cell suspension was centrifuged for 5 min on a centrifuge at 4° C. at […], and then supernatant was discarded; • 4. cells were evenly mixed in the solution after HEPES buffer was added; • 5. the cell suspension was transferred to a 96-well plate, with 80 ul per well; • 6. a to-be-tested drug Atovaquone was added to a corresponding position according to experiment design, the positions of a positive control SP (neuropeptide substance P), a negative control QWF (MRGPRX2 receptor antagonist) and a blank control were reserved, and each drug was administrated for three repetitions; • 7. the cells were co-incubated with the drug for 30 min; • 8. […]
Detection of m Absorbance
• 12. the degranulation percentage of mast cells was calculated.
According to a formula: degranulation percentage-2×absorbance of supernatant plate/(absorbance of supernatant plate+[…]absorbance of cell lysis plate)×100%

Another data set addresses NKIR (Homo sapiens, UniProt P25103). The data set can be described thus: Calcium ion flow when substance P acts on NKIR. The note with it: substance P 5 nM acted on NKIR; cells with vs without Atovaquone; FIG. 2. It counts as cell-based. Here is the method: as §1, §2
The test system of another data set is LAD2 cells. Nature of the data set: Intracellular calcium ion flow experiment (calcium imaging, Fluo-3). Type of data set: cell-based. The note with it: Atovaquone at different concentrations (0, 1, 10, 100 nM and 1 μM), incubation 30 min; FIG. 3. Here is the method: as §1
The conditions of data set [1]: cited from earlier work.

Chain of NKIR (P25103 whole entry): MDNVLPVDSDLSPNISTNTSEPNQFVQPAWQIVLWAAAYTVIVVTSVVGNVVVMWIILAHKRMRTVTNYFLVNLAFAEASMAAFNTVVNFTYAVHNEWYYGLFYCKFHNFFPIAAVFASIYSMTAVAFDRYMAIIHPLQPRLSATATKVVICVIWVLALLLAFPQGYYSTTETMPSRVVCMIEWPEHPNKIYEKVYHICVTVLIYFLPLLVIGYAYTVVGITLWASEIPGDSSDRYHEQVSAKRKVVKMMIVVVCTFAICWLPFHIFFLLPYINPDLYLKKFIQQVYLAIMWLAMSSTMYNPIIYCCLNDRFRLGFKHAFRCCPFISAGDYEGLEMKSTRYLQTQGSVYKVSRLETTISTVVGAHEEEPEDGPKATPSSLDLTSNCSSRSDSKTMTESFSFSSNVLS

With `O=C1C(O)=C([C@H]2CC[C@H](c3ccc(Cl)cc3)CC2)C(=O)c2ccccc21` [Atovaquone], the “effect on MrgA1 mediated calcium ion flow” value at MrgA1 is “inferior to that on MrgX2”. Besides, the “inhibition of LAD2 mast cell degranulation compared with QWF” value in the data set on LAD2 mast cells is recorded as “far superior to QWF”. Besides, the “degranulation of LAD2 mast cells (degranulation percentage)” value in the data set with LAD2 mast cells (cells co-incubated with drug 30 min, then SP 30 min) is on record as “obviously improved”. At NKIR, the “effect on NKIR mediated calcium ion flow” value is “inferior to that on MrgX2”. In the data set with LAD2 cells, the calcium ion flow result is reported as “reduction in calcium ion flow”. For the same compound, in data set [1] (after long-term use), the drug dependence entry was “no significant drug dependence phenomenon”. In addition, the side effects entry in data set [1] (users in a population) is given as “low side effect characteristics”.
